Assay results as given in patent publication US7569567B2, “3-Heteroaryl-3,5-dihydro-4-oxo-4H-pyridazino[4,5-B]indole-1-carboxamide derivatives, their preparation and therapeutic use” (sanofi-aventis, priority 2001, dated 2009).

CN(C)C(=O)c1nn(-c2cccnc2)c(=O)c2c1c1ccc(Cl)cc1n2C.Cl
melting point: 228 to 230 °C

CN(C)C(=O)c1nn(-c2ccncc2)c(=O)c2c1c1ccc(Cl)cc1n2C.Cl
melting point: 263 to 265 °C

Cl.Cn1c2cc(Cl)ccc2c2c(C(=O)N3CCCC3)nn(-c3cccnc3)c(=O)c21
melting point: 232 to 234 °C

CN1CCN(C(=O)c2nn(-c3cccnc3)c(=O)c3c2c2ccc(Cl)cc2n3C)CC1.Cl
melting point: 267 to 268 °C

CN(C)C(=O)c1nn(-c2ccncc2)c(=O)c2c1c1ccc(F)cc1n2C.Cl
melting point: 266 to 271 °C

CN1CCN(C(=O)c2nn(-c3cccnc3)c(=O)c3c2c2ccc(F)cc2n3C)CC1.Cl
melting point: 269 to 273 °C

CN(C)C(=O)c1nn(-c2ccccn2)c(=O)c2c1c1ccc(F)cc1n2C [Compound 1, 7-fluoro-N,N,5-trimethyl-4-oxo-3-(pyridin-2-yl)-3,5-dihydro-4H-pyridazino[4,5-b]indole-1-carboxamide]
melting point: 199 to 200 °C

CN(C)C(=O)c1nn(-c2cccnc2)c(=O)c2c1c1ccc(F)cc1n2C [Compound 2, 7-fluoro-N,N,5-trimethyl-4-oxo-3-(pyridin-3-yl)-3,5-dihydro-4H-pyridazino[4,5-b]indole-1-carboxamide]
melting point: 220 to 221 °C

COc1ccc(-n2nc(C(=O)N(C)C)c3c4ccc(F)cc4n(C)c3c2=O)cn1 [Compound 4, 7-fluoro-N,N,5-trimethyl-4-oxo-3-(2-methoxypyridin-5-yl)-3,5-dihydro-4H-pyridazino[4,5-b]indole-1-carboxamide]
melting point: 225 to 226 °C

CN(C)C(=O)c1nn(-c2cnc3ccccc3c2)c(=O)c2c1c1ccc(F)cc1n2C [Compound 5, 7-fluoro-N,N,5-trimethyl-4-oxo-3-(quinolin-3-yl)-3,5-dihydro-4H-pyridazino[4,5-b]indole-1-carboxamide]
melting point: 237 to 238 °C

Cn1c2cc(F)ccc2c2c(C(=O)N3CCCC3)nn(-c3ncccn3)c(=O)c21 [Compound 6, 1-[[7-fluoro-5-methyl-3-(pyrimidin-2-yl)-4-oxo-3,5-dihydro-4H-pyridazino[4,5-b]indol-1-yl]carbonyl]-pyrrolidine]
melting point: 238 to 239 °C

Cn1c2cc(F)ccc2c2c(C(=O)N3CCCC3)nn(-c3cccnc3)c(=O)c21 [Compound 8, 1-[[7-fluoro-5-methyl-3-(pyridin-3-yl)-4-oxo-3,5-dihydro-4H-pyridazino[4,5-b]indol-1-yl]carbonyl]-pyrrolidine]
melting point: 220 to 221 °C

CNC(=O)c1nn(-c2cccnc2)c(=O)c2c1c1ccc(F)cc1n2C [Compound 9, 7-fluoro-N,5-dimethyl-4-oxo-3-(pyridin-3-yl)-3,5-dihydro-4H-pyridazino[4,5-b]indole-1-carboxamide]
melting point: 270 to 272 °C

Cn1c2cc(F)ccc2c2c(C(N)=O)nn(-c3cccnc3)c(=O)c21 [Compound 10, 7-fluoro-5-methyl-4-oxo-3-(pyridin-3-yl)-3,5-dihydro-4H-pyridazino[4,5-b]indole-1-carboxamide]
melting point: 319 to 320 °C

CN(C)C(=O)c1nn(-c2ccccn2)c(=O)c2c1c1ccc(Cl)cc1n2C [Compound 11, 7-chloro-N,N,5-trimethyl-4-oxo-3-(pyridin-2-yl)-3,5-dihydro-4H-pyridazino[4,5-b]indole-1-carboxamide]
melting point: 210 to 211 °C

CN(C)C(=O)c1nn(-c2ccncc2)c(=O)c2c1c1ccc(Cl)cc1n2C [Compound 13, 7-chloro-N,N,5-trimethyl-4-oxo-3-(pyridin-4-yl)-3,5-dihydro-4H-pyridazino[4,5-b]indole-1-carboxamide]
melting point: 276 to 278 °C

Cc1ccc(-n2nc(C(=O)N(C)C)c3c4ccc(Cl)cc4n(C)c3c2=O)nc1 [Compound 15, 7-chloro-N,N,5-trimethyl-4-oxo-3-(5-methylpyridin-2-yl)-3,5-dihydro-4H-pyridazino[4,5-b]indole-1-carboxamide]
melting point: 222 to 224 °C

COc1ccc(-n2nc(C(=O)N(C)C)c3c4ccc(Cl)cc4n(C)c3c2=O)cn1 [Compound 16, 7-chloro-N,N,5-trimethyl-4-oxo-3-(2-methoxypyridin-5-yl)-3,5-dihydro-4H-pyridazino[4,5-b]indole-1-carboxamide]
melting point: 236 to 237 °C

Cc1ccc(-n2nc(C(=O)N(C)C)c3c4ccc(Cl)cc4n(C)c3c2=O)cn1 [Compound 17, 7-chloro-N,N,5-trimethyl-4-oxo-3-(2-methylpyridin-5-yl)-3,5-dihydro-4H-pyridazino[4,5-b]indole-1-carboxamide]
melting point: 214 to 216 °C

CN(C)C(=O)c1nn(-c2ccc(Br)nc2)c(=O)c2c1c1ccc(Cl)cc1n2C [Compound 18, 7-chloro-N,N,5-trimethyl-4-oxo-3-(2-bromopyridin-5-yl)-3,5-dihydro-4H-pyridazino[4,5-b]indole-1-carboxamide]
melting point: 250 to 252 °C

CN(C)C(=O)c1nn(-c2cnc3ccccc3c2)c(=O)c2c1c1ccc(Cl)cc1n2C [Compound 19, 7-chloro-N,N,5-trimethyl-4-oxo-3-(quinolin-3-yl)-3,5-dihydro-4H-pyridazino[4,5-b]indole-1-carboxamide]
melting point: 271 to 272 °C

CN(C)C(=O)c1nn(-c2cncc3ccccc23)c(=O)c2c1c1ccc(Cl)cc1n2C [Compound 20, 7-chloro-N,N,5-trimethyl-4-oxo-3-(isoquinolin-4-yl)-3,5-dihydro-4H-pyridazino[4,5-b]indole-1-carboxamide]
melting point: 189 to 191 °C

Cc1ccc(-n2nc(C(=O)N(C)C)c3c4ccc(Cl)cc4n(C)c3c2=O)nn1 [Compound 21, 7-chloro-N,N,5-trimethyl-4-oxo-3-(6-methyl-pyridazin-3-yl)-3,5-dihydro-4H-pyridazino[4,5-b]indole-1-carboxamide]
melting point: 238 to 239 °C

CN(C)C(=O)c1nn(-c2cncnc2)c(=O)c2c1c1ccc(Cl)cc1n2C [Compound 22, 7-chloro-N,N,5-trimethyl-4-oxo-3-(pyrimidin-5-yl)-3,5-dihydro-4H-pyridazino[4,5-b]indole-1-carboxamide]
melting point: 251 to 252 °C

CN(C)C(=O)c1nn(-c2ncccn2)c(=O)c2c1c1ccc(Cl)cc1n2C [Compound 23, 7-chloro-N,N,5-trimethyl-4-oxo-3-(pyrimidin-2-yl)-3,5-dihydro-4H-pyridazino[4,5-b]indole-1-carboxamide]
melting point: 272 to 274 °C

CN(C)C(=O)c1nn(-c2cnccn2)c(=O)c2c1c1ccc(Cl)cc1n2C [Compound 24, 7-chloro-N,N,5-trimethyl-4-oxo-3-(pyrazin-2-yl)-3,5-dihydro-4H-pyridazino[4,5-b]indole-1-carboxamide]
melting point: 231 to 232 °C

Cn1c2cc(Cl)ccc2c2c(C(=O)N3CCCC3)nn(-c3ccncc3)c(=O)c21 [Compound 27, 1-[[7-chloro-5-methyl-3-(pyridin-4-yl)-4-oxo-3,5-dihydro-4H-pyridazino[4,5-b]indol-1-yl]carbonyl]-pyrrolidine]
melting point: 236 to 237 °C

CNC(=O)c1nn(-c2ccncc2)c(=O)c2c1c1ccc(Cl)cc1n2C [Compound 28, 7-chloro-N,5-dimethyl-4-oxo-3-(pyridin-4-yl)-3,5-dihydro-4H-pyridazino[4,5-b]indole-1-carboxamide]
melting point: 321 to 323 °C

Cn1c2cc(Cl)ccc2c2c(C(N)=O)nn(-c3ccncc3)c(=O)c21 [Compound 29, 7-chloro-5-methyl-4-oxo-3-(pyridin-4-yl)-3,5-dihydro-4H-pyridazino[4,5-b]indole-1-carboxamide]
melting point: 341 to 346 °C

COc1ccnc(-n2nc(C(=O)N(C)C)c3c4ccc(Cl)cc4n(C)c3c2=O)c1 [Compound 30, 7-chloro-N,N,5-trimethyl-4-oxo-3-(4-methoxypyridin-2-yl)-3,5-dihydro-4H-pyridazino[4,5-b]indole-1-carboxamide]
melting point: 243 to 244 °C

CCN(C)C(=O)c1nn(-c2ccncc2)c(=O)c2c1c1ccc(Cl)cc1n2C [Compound 33, 7-chloro-N-ethyl-N,5-dimethyl-4-oxo-3-(pyridin-4-yl)-3,5-dihydro-4H-pyridazino[4,5-b]indole-1-carboxamide]
melting point: 211 to 213 °C

Cn1c2cc(Cl)ccc2c2c(C(=O)N3CCCCC3)nn(-c3ccncc3)c(=O)c21 [Compound 34, 1-[[7-chloro-5-methyl-3-(pyridin-4-yl)-4-oxo-3,5-dihydro-4H-pyridazino[4,5-b]indol-1-yl]carbonyl]-piperidine]
melting point: 242 to 243 °C

Cc1cc(-n2nc(C(=O)N(C)C)c3c4ccc(Cl)cc4n(C)c3c2=O)ccn1 [Compound 35, 7-chloro-N,N,5-trimethyl-4-oxo-3-(2-methylpyridin-4-yl)-3,5-dihydro-4H-pyridazino[4,5-b]indole-1-carboxamide]
melting point: 267 to 269 °C

Cc1cc(-n2nc(C(=O)N3CCCC3)c3c4ccc(Cl)cc4n(C)c3c2=O)ccn1 [Compound 36, 1-[[7-chloro-5-methyl-3-(2-methylpyridin-4-yl)-4-oxo-3,5-dihydro-4H-pyridazino[4,5-b]indol-1-yl]carbonyl]pyrrolidine]
melting point: 246 to 247 °C

CN(C)C(=O)c1nn(-c2cc[n+]([O-])cc2)c(=O)c2c1c1ccc(Cl)cc1n2C [Compound 37, 7-chloro-N,N,5-trimethyl-3-(1-oxidopyridin-4-yl)-4-oxo-3,5-dihydro-4H-pyridazino[4,5-b]indole-1-carboxamide]
melting point: 301 to 304 °C

COc1cc(-n2nc(C(=O)N(C)C)c3c4ccc(Cl)cc4n(C)c3c2=O)ccn1 [Compound 38, 7-chloro-3-(2-methoxypyridin-4-yl)-N,N,5-trimethyl-4-oxo-3,5-dihydro-4H-pyridazino[4,5-b]indole-1-carboxamide]
melting point: 237 to 238 °C
